Where “and” joins values, the source holds several entries; their conditions need not be identical. Identical values can stand only once.
Assays:
MvfR regulon [1] = assay: Quantification of pyocyanin (OD520nm of chloroform-extracted cultures); type: cell-based, P. aeruginosa; details: Pseudomonas aeruginosa
MvfR regulon [2] = assay: pqsA gene expression (pqsA-GFP reporter); type: cell-based, P. aeruginosa; details: Pseudomonas aeruginosa
MvfR = biological target: T1, MvfR (Pseudomonas aeruginosa, UniProt Q9I4X0); assay: Surface plasmon resonance (SPR) binding to purified MvfR co-inducer binding domain; set-up: species or system P. aeruginosa
T1 construct: made in house
T1 sequence (Q9I4X0 91-332): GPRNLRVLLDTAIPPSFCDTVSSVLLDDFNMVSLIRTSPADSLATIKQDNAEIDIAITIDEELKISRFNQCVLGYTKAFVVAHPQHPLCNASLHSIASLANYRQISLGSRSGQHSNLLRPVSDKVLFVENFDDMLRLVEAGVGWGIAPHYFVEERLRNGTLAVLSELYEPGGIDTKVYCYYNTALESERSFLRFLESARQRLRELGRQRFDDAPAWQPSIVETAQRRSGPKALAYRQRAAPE
Procedure: Compounds identified to interfere with MvfR were confirmed for the direct physical interaction with this protein. Using SPR, the percentage of compound's binding to the purified MvfR protein was analyzed and used to determine the binding parameters (KD, kon and koff)—thus determining the kinetic of interaction with MvfR.
The recombinant MvfR co-inducer binding domain was purified using Ni-NTA chromatography, as previously reported (see e.g., Xiao et al, Microbiology, 2006, 152:1679-1686; Starkey et al, PLoS Pathog. 2014, 10:e1004321; and Kefala et al, Acta. Crystallogr. Sect. F. Struct. Biol. Cryst. Commun. 2012, 68:695-697). The purified protein was immobilized with the amine coupling method at a target level of 5000 RU on Chip. SPR was performed according to previously reported procedures (see e.g., Starkey et al, PLoS Pathog. 2014, 10:e1004321; Maura et al, ACS Chemical Biology, 2017, 12:1435-1443; and Kitao et al, MBIO, in press). […] Table 3 lists the steady-state KD data measured by SPR.

PA14 [3] = assay: Antibiotic tolerance/persister (AT/P) cell formation, meropenem, CFU plating; type: cell-based, P. aeruginosa; details: 50 μM compound
Procedure: Wild type (PA14) P. aeruginosa was grown in liquid culture with or without Compound 54 and treated with meropenem according to published procedures (see e.g., Starkey et al, PLoS Pathog. 2014, 10:e1004321). Data are expressed as fraction of original culture surviving antibiotic treatment.
AT/P efficacy of compounds using CFU plating was assessed by growning over-night, cultures diluted 1:100 in triplicate in fresh LB medium in the presence or absence of inhibitor, and re-grown to an OD600 of 2.0 while shaking under aeration at 37° C. Before the antibiotic treatment, aliquots were plated to obtain reference colony counts. […] At 24-h and 48-h time points, the number of surviving bacteria were assessed by plating. The survival fraction of AT/P cells was calculated by dividing the number of surviving bacteria by the number of live bacteria that were present before the antibiotic treatment (reference datum) and expressed as a mean (±SD) of at least three replicate experiments. Using the same CFU plating assay, the efficacy of all compounds identified will be tested against additional antibiotic classes: b-lactams (ceftazidime, cefepime and imipenem), quinolones (ciprofloxacin, moxifloxacin, and levofloxacin), and aminoglycosides (gentamicin and tobramycicn).

[4] = Pharmacokinetics in mouse plasma and lung after single subcutaneous injection; type: in vivo, mice; details: for stability in vivo (serum concentration): 10 mg/kg subcutaneous, over 24 h
Procedure: FIGS. 1F-1G show pharmacokinetics measured in mouse plasma (FIG. 1F) and lung (FIG. 1G) following a single subcutaneous injection of Compounds 53, 54, or 72 at 10 mg/kg.

PA14 [5] = assay: Acute mouse lung infection model (PA14); type: in vivo, mice

## N#Cc1ccc(NC(=O)CC(=O)Nc2ccc(Br)cc2)cc1 [Compound 54]
MvfR regulon [1]; read-out: IC50 pyocyanin (μM)
  IC50: 1.8 µM
MvfR regulon [1]; read-out: pyocyanin @1 uM (%), compound at 1 uM
  activity at 1 µM: 60.8%
MvfR regulon [1]; read-out: pyocyanin @10 uM (%), compound at 10 uM
  activity at 10 µM: 5.9%
MvfR regulon [1]; read-out: pyocyanin @50 uM (%), compound at 50 uM
  activity at 50 µM: 5.7%
MvfR regulon [2]; read-out: IC50 pqsA (μM)
  IC50: 1.28 µM
MvfR regulon [2]; read-out: pqsA @10 uM (%), compound at 10 uM
  activity at 10 µM: 8.8%
MvfR regulon [2]; read-out: pqsA @50 uM (%), compound at 50 uM
  activity at 50 µM: 7.93%
MvfR; FIG. 1B
  binding to MvfR (in words): high affinity
MvfR; SPR
  Signal Intensity Rmax: 28.21
  binding intensity relative to parent Compound 1: 40 times
MvfR; Steady State Binding Affinity KD (μM), SPR, steady state
  Kd: 0.275 µM
MvfR; Steady State Binding Affinity KD [M], SPR, steady state
  Kd: 0.275 µM
MvfR; mean KD value, SPR, mean over the compounds named
  Kd: ~0.25 µM and 0.25 µM
PA14 [3]
  inhibition of persistence: inhibit persistence
[4]
  stability in vivo (serum concentration): stable in vivo
[4]; listed as D42
  stability in vivo (serum concentration): highly stable in vivo
[4]; mouse, in vivo
  pharmacokinetics (in words): promising pharmacokinetics
PA14 [5]; 10 mg/kg compound SC plus ciprofloxacin 1 mg/kg IP, CFUs 24 h post-infection
  potentiation of ciprofloxacin in reducing PA cells in mice lungs: potentiates ciprofloxacin efficacy
PA14 [5]; preliminary, intranasal infection, 10 mg/kg compound vs vehicle
  recoverable CFUs from infected lungs: reduces the recoverable CFUs from infected lungs

Reference: patent publication US11731946B2, “Broad spectrum antivirulence, anti-persistence compounds” (priority 2017, dated 2023)
